Assay results from PMC2946083 (Bioorganic & medicinal chemistry letters, 2010).

Experiments:
A1 AR = biological target: T1, A1 AR (Homo sapiens, UniProt P30542); experiment: Radioligand binding at human A1 AR
T1 sequence (P30542 1-326): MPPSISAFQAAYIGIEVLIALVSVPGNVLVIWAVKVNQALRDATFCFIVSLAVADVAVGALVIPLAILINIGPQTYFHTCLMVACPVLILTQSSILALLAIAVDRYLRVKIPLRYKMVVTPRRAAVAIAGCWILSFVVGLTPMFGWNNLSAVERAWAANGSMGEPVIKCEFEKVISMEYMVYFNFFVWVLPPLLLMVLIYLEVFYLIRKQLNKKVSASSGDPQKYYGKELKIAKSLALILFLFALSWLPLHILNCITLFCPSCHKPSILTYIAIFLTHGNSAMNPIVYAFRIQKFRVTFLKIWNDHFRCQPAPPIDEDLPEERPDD

A2A AR = A2A AR (Homo sapiens, UniProt P29274); experiment: Radioligand binding at human A2A AR; conditions: A2A vs A1 and A3 ARs
Chain of A2A AR (P29274 whole entry): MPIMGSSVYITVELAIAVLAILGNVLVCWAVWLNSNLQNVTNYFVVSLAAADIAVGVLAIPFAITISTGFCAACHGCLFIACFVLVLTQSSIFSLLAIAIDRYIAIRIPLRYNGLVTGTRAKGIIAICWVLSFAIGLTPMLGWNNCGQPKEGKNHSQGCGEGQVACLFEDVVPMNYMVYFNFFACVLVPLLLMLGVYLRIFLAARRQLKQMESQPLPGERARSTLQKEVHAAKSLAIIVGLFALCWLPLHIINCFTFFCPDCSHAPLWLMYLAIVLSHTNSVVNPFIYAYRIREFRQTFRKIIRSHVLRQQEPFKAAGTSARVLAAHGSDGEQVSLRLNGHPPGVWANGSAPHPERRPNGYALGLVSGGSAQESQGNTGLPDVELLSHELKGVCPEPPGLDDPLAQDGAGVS

Nc1nc2c(cnn2CCCc2ccc(OCCF)cc2)c2nc(-c3ccco3)nn12 [Compound 5]
Ki (A1 AR): ~10 µM | Selectivity for the A2A AR in comparison to the A1 and A3 ARs (A2A AR): highly selective
